System: T1, L-glutaminase (Aspergillus tamarii AUMC 10198)
T1 construct: gene gtaA; approx. 62 kDa by SDS-PAGE, single band
Assay: Nesslerization ammonia assay, […] nm; Lineweaver-Burk plot
Assay type: biochemical
Conditions: standard assay conditions (0.1 M citrate-phosphate pH 7, 30 °C, 30 min as described for the crude enzyme); 0.2-2.0 mg/ml L-glutamine; apparent Km

Km: 0.28 mg/mL
Compound: NC(=O)CC[C@H](N)C(=O)O [L-glutamine]
